What was measured:
[1] = system: human epidermoid carcinoma (A431, ATCC CRL 1555); assay: In vivo tumor growth of A431 cells implanted into the hindflank of athymic mice; set-up: species or system Female athymic mice (BALB/c, nu/nu)
Experimental: The following example illustrates the use of the compounds of the invention in an in vivo model of tumor growth.
Female athymic mice (BALB/c, nu/nu) were obtained from Simonsen Laboratories (Gilroy, Calif.). All animals were maintained under clean-room conditions in Micro-isolator cages with Alpha-dri bedding. They received sterile rodent chow and water ad libitum. A cell line established from a human epidermoid carcinoma (A431, ATCC CRL 1555) was grown in DMEM with 10% FBS and 2 mM GLN. All cell culture media, glutamine, and fetal bovine serum were purchased from Gibco Life Technologies (Grand Island, N.Y.) unless otherwise specified. All cells were grown in a humid atmosphere of 90-95% air and 5-10% CO2 at 37° C. All cell lines were routinely subcultured twice a week and were negative for mycoplasma as determined by teh Mycotect method (Gibco). Cells were harvested at or near confluency with 0.05% Trypsin-EDTA and pelleted at 450×g for 10 min. Pellets were resuspended in sterile PBS or media (without FBS) to a particular concentration and the cells were implanted into the hindflank of the mice ([…] mice per group). Tumor growth was measured, over 3 to 6 weeks using venier calipers. Tumor volumes were calculated as a product of length×width×height unless otherwise indicated. P values were calculated using the Students' t-test. Compound 1 (from Example 1 and Table I) in 100 μL excipient (VPD:D5W, 1:1 (VPD−12% w/v polysorbate 80, 0.55% citric acid (anhydrous), 35% w/v polyenthlene glycol (MW=300 daltons) and 26.3% v/v 190 proof ethanol diluted 1:22 in 5% dextrose in water (D5W) was delivered by IP injection at different concentrations. Control animals received VPD:D5W alone. Animals were dosed daily on days 1-5 (high dose), days 1-9 (mid-dose) or throughout the study (low dose).
The results are shown below as a percent tumor reduction compared to controls.

[2] = molecular target: HIV-reverse transcriptase (Human immunodeficiency virus type 1 group M subtype B, UniProt P03366); conditions: cited from earlier work

SMILES: CC(C)CCc1[nH]c2ccccc2c1C1=C(O)C(=O)C(c2c(CCC(C)C)[nH]c3ccccc23)=C(O)C1=O [Compound 1, 2,5-Dihydroxy-3,6-di-[2-(3-methyl-n-butyl)indol-3-yl]-1,4-quinone]
- % inhibition (percent tumor reduction compared to controls) ([1]; 2.5 mg/kg/day IP (low dose, dosed daily throughout the study), Day 7, A431 tumor): 11%
- % inhibition (percent tumor reduction compared to controls) ([1]; 2.5 mg/kg/day IP (low dose, dosed daily throughout the study), Day 18, A431 tumor): 0%
- % inhibition (percent tumor reduction compared to controls) ([1]; 5 mg/kg/day IP (mid-dose, days 1-9), Day 7, A431 tumor): 30%
- % inhibition (percent tumor reduction compared to controls) ([1]; 5 mg/kg/day IP (mid-dose, days 1-9), Day 18, A431 tumor): 38%
- % inhibition (percent tumor reduction compared to controls) ([1]; 7.5 mg/kg/day IP (high dose, days 1-5), Day 7, A431 tumor): 55%
- % inhibition (percent tumor reduction compared to controls) ([1]; 7.5 mg/kg/day IP (high dose, days 1-5), Day 18, A431 tumor): 50%
- tumor growth inhibition, dose dependence ([1]; IP, 2.5-7.5 mg/kg/day, A431 tumor in athymic mice): inhibited tumor growth in a dose dependent manner
- tumor growth after cessation of treatment ([1]; after cessation of treatment with the compound): remained inhibited even after cessation of treatment

SMILES: C=CC(C)(C)n1cc(C2=C(O)C(=O)C(c3cn(C(C)(C)C=C)c4ccccc34)=C(O)C2=O)c2ccccc21 [asterriquinone, 2,5-bis[N-(1″,1″-dimethyl-2″-propenyl)indol-3″-yl]-3,6-dihydroxy-1,4-benzoquinone]
- inhibition of HIV-reverse transcriptase [2]: strong inhibitors
